Test results as given in patent publication US20190030053A1, “COMPOSITION FOR INCREASING EXPRESSION OF PGC-1alpha” (BENEBIOSIS CO., LTD., priority 2016, published 2019).

Key:
PGC-1α and related genes [1] = test: Gene expression in brain and hippocampus of epilepsy/convulsion brain disease models; assay type: in vivo, rat; settings: Noda epileptic rats, oral 0.1 mg/kg/day, 10 weeks
Excerpt: In order to investigate the gene expression changes by the treatment with SL (3′-SL & 6′-SL) compositions in epilepsy/convulsion brain disease models, 4-week-old normal SD rats and epilepsy/convulsion brain disease models (Noda epileptic rat, NER) were purchased from Central Lab Animal (Korea). Water was freely accessible, and a commercially available pellet feed (Dooyeul Biotech, Korea) was given for two weeks. At 6 weeks of age, the SD rats were divided into four groups (composed of 8 animals per group): Eight 6-week-old male SD rats (normal rats; initial body weight, average 176.3±13.3 g) treated with a normal diet were used for a control group. […]
(§1) Sialyllactose or DW was orally administered daily. […] The dietary intake and body weight change were measured every 5 days. […]
(§2) The gene expression changes by the treatment with SL (3′-SL & 6′-SL) compositions were quantitatively compared in two main organs (brain and hippocampus) associated with bran diseases. RNA was extracted by TRIzol agent (Invitrogen). cDNA was synthesized by using RNA, which has been extracted as above and quantified, and a reverse transcription system (Promega, USA). The expression patterns of PGC-1α and related genes were measured by using pre-designed primers and probes (Applied Biosystems; PGC-1α, Mm00447181_m1, 999915_q1) for the synthesized cDNA and analysis targets (Fndc5, PGC-1α, Erra, UCP1, BDNF, SOD2, and GPX1). […]

PGC-1α and related genes [2] = test: Gene expression in brain and hippocampus of Alzheimer's disease models; assay type: in vivo, mouse; settings: 3×Tg mice, oral 0.1 mg/kg/day, 10 weeks
Excerpt: In order to investigate the changes in gene expression and cognitive ability by the treatment with SL (3′-SL & 6′-SL) compositions in Alzheimer's brain disease models, 6-week-old mice were purchased from Central Lab Animal (Korea). Water was freely accessible, and a commercially available pellet feed (Dooyeul Biotech, Korea) was given for two weeks. At 8 weeks of age, the mice were divided into three groups (composed of eight mice for each group): Eight 8-week-old male c57/BL6 mice (normal mice; initial body weight, average 35.6±3.3 g) treated with a normal diet were used for a control group. […]
as §1
as §2, with “diseases. […]” for “diseases.”, “GAPDH, and Mm99999915_q1)” for “999915_q1)”

Compound | expression levels of PGC-1α and related genes vs SL non-administration (epilepsy/convulsion brain disease model) group (PGC-1α and related genes [1]) | expression levels of PGC-1α and related genes vs SL non-administration (Alzheimer's disease model) group (PGC-1α and related genes [2]) | expression levels of PGC-1α and related genes vs normal control group (PGC-1α and related genes [2])
CC(=O)N[C@H]1[C@H]([C@H](O)[C@H](O)CO)O[C@@](OC[C@H]2O[C@@H](O[C@H]3[C@H](O)[C@@H](O)[C@H](O)O[C@@H]3CO)[C@H](O)[C@@H](O)[C@H]2O)(C(=O)O)C[C@@H]1O [6′-SL, α-NeuNAc-(2→6)-β-D-Gal-(1→4)-D-Glc] | significant increases | very high | somewhat lower
CC(=O)N[C@H]1[C@H]([C@H](O)[C@H](O)CO)O[C@@](O[C@H]2[C@@H](O)[C@@H](CO)O[C@@H](O[C@H]3[C@H](O)[C@@H](O)C(O)O[C@@H]3CO)[C@@H]2O)(C(=O)O)C[C@@H]1O (stereo partly drawn) [3′-SL, α-NeuNAc-(2→3)-β-D-Gal-(1→4)-D-Glc] | relatively low compared with 6′-SL | relatively low compared with 6′-SL | 
